Data taken from US6346535B1, “Fungicidal mixtures” (American Cyanamid Company, priority 1999, dated 2002).

Experiments:
Format in all cases: in vivo
[1] = tested on: Uncinula necator on vines; assay: Greenhouse trial, 1 day residual, Uncinula necator on vines; conditions: Table XVIII, compound alone
Method: (§1) The trials are carried out under greenhouse (Examples 1 to 18) or field conditions (Example 19) in residual or curative applications. The fungicides are applied in single treatments, or in a combination comprising a benzophenone of formula I and a compound selected from (A) through (E) as defined above. The compounds are applied in form of an aqueous spray mix obtained from a concentrated formulation or the technical material.
(§2) 1. Seed is planted in 6 cm diameter plastic pots and maintained in the greenhouse.
(§3) 2. When the primary leaf is fully expanded (in the case of cereals) or several leaves are present (in the case of dicots), formulated test compounds are sprayed with a three nozzle overhead fungicide sprayer to near run-off. Alternatively, a single nozzle overhead track sprayer is used for application of the compounds to cereals at a rate of 200 liters/ha (l/ha). Plants are then allowed to air-dry.
(§4) 3. Inoculation precedes treatment in the case of curative evaluations and follows treatment in case of residual evaluations. For inoculation of powdery mildew disease, plants are set up on greenhouse benches with bottom watering mats and inoculated by dusting them with conidia from infected plants. Between inoculation and treatment for curative evaluations and between treatment and inoculation for residual evaluations, plants are maintained in the greenhouse with bottom watering. For inoculation of non-powdery mildew diseases, an aqueous spore suspension of the pathogen is applied to the plant and the plants are kept 1-2 days in a moist infection chamber before being returned to the greenhouse where they are maintained by bottom watering.
(§5) 4. Disease on the foliage as percent leaf area with disease symptoms/signs is evaluated about 7 days after inoculation. In the case of wheat, the tips and bases of the leaves are excluded from the evaluation. [formula]
(§6) 1. Technical compounds are formulated in a solvent/surfactant system consisting of 5% acetone and 0.05% Tween 20 in deionized water. Compounds are dissolved in acetone prior to addition of the water; the Tween 20 can be added through either the acetone or the water. Dilutions are made using the solvent/surfactant system. Formulated compounds are prepared using deionized water.
(§7) Assessments of the diseases took place at the indicated day after the application of the compounds. Per cent infected leaf area infected was evaluated. The efficacy of the compounds/compounds mixtures to control the diseases was calculated by using the formula given above under item 4: […]
(§8) Synergy of a fungicide mixture was determined by comparing the actual (observed) fungicidal activity of the mixture to the expected fungicidal activity of the mixture as calculated using the COLBY formula given hereinabove.
Fungicidal Efficacy of the Mixture of BP-4+AP-4 (1 Day Residual) Against Uncinula necator on Vines
The tank mixes were obtained from technical material of BP-4 and AP-4. The active ingredients, the type of formulations, the observed and expected efficacies with different rates are given in Table XVIII: […]

[2] = tested on: Blumeria graminis on wheat; assay: Greenhouse trial, 3 day protective, Blumeria graminis on wheat; conditions: Table IV, compound alone
Description: (§9) The fungicides are applied in single treatments, or in a combination comprising a benzophenone of formula I and a compound selected from (A) through (E) as defined above. The compounds are applied in form of an aqueous spray mix obtained from a concentrated formulation or the technical material.
as §2, §3, §4, §5, §6, §7, §8
Fungicidal Efficacy of the Mixture of BP-5+Triforine (3 Day Protective) Against Blumeria graminis on Wheat
Fungicidal Efficacy of the Mixture of BP-1+Triadimefon (3 Day Protective) Against Blumeria graminis on Wheat

[3] = tested on: Blumeria graminis f. sp. tritici on wheat; assay: Greenhouse trial, 2 day curative, Blumeria graminis f. sp. tritici on wheat; conditions: Table XVII, compound alone
Method: as §1, §2, §3, §4, §5, §6, §7, §8
Fungicidal Efficacy of the Mixture of Different Benzophenones+Metconazole (2 Day Curative) Against Blumeria graminis f. sp. tritici on Wheat
The tank mixes were obtained from technical material of the benzophenones BP-2 and BP-4 and metconazole.

[4] = tested on: Erysiphe cichoracearum on cucumbers; assay: Greenhouse trial, 4 day residual, Erysiphe cichoracearum on cucumbers
Outline: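 Cucumber plants were sprayed to near run-off with compounds or mixtures (5% acetone/0.05% Tween 20 aqueous). Four days later they were inoculated by dusting with Erysiphe cichoracearum conidia. Percent diseased leaf area was assessed about 7 days after inoculation, and efficacy and Colby synergy were calculated from it.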

[5] = tested on: Puccinia recondita on wheat; assay: Greenhouse trial, 4 day residual, Puccinia recondita on wheat
Outline: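 Wheat plants sprayed at primary-leaf stage with compounds, alone or in mixtures, in 5% acetone/0.05% Tween 20 water, then inoculated 4 days later with Puccinia recondita spore suspension and held 1-2 days in a moist chamber. Percent diseased leaf area scored about 7 days post-inoculation, excluding leaf tips and bases; efficacy calculated, synergy by Colby.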

[6] = tested on: Leptosphaeria nodorum on wheat; assay: Greenhouse trial, 4 day residual, Leptosphaeria nodorum on wheat; conditions: Table VIII, compound alone
Description: as §9, §2, §3, §4, §5, §6, §7, §8
Fungicidal Efficacy of the Mixture of BP-4+Other Fungicides (4 Day Residual) Against Leptosphaeria nodorum on Wheat

[7] = tested on: Blumeria graminis on wheat; assay: Greenhouse trial, 4 day curative, Blumeria graminis on wheat; conditions: compound alone
Method: The trials are carried out under greenhouse (Examples 1 to 18) or field conditions (Example 19) in residual or curative applications. The fungicides are applied in single treatments, or in a combination comprising a benzophenone of formula I and a compound selected from (A) through (E) as defined above. The compounds are applied in form of an aqueous spray mix obtained from a concentrated formulation or the technical material. […] Seed is planted in 6 cm diameter plastic pots and maintained in the greenhouse. […] When the primary leaf is fully expanded (in the case of cereals) or several leaves are present (in the case of dicots), formulated test compounds are sprayed with a three nozzle overhead fungicide sprayer to near run-off. Alternatively, a single nozzle overhead track sprayer is used for application of the compounds to cereals at a rate of 200 liters/ha (l/ha). Plants are then allowed to air-dry. […] Inoculation precedes treatment in the case of curative evaluations and follows treatment in case of residual evaluations. For inoculation of powdery mildew disease, plants are set up on greenhouse benches with bottom watering mats and inoculated by dusting them with conidia from infected plants. Between inoculation and treatment for curative evaluations and between treatment and inoculation for residual evaluations, plants are maintained in the greenhouse with bottom watering. For inoculation of non-powdery mildew diseases, an aqueous spore suspension of the pathogen is applied to the plant and the plants are kept 1-2 days in a moist infection chamber before being returned to the greenhouse where they are maintained by bottom watering. […] Disease on the foliage as percent leaf area with disease symptoms/signs is evaluated about 7 days after inoculation. In the case of wheat, the tips and bases of the leaves are excluded from the evaluation. [formula] […] Compounds are dissolved in acetone prior to addition of the water; the Tween 20 can be added through either the acetone or the water. Dilutions are made using the solvent/surfactant system. Formulated compounds are prepared using deionized water. Assessments of the diseases took place at the indicated day after the application of the compounds. Per cent infected leaf area infected was evaluated. […] Synergy of a fungicide mixture was determined by comparing the actual (observed) fungicidal activity of the mixture to the expected fungicidal activity of the mixture as calculated using the COLBY formula given hereinabove.

[8] = tested on: Pyrenophora teres on barley; assay: Greenhouse trial, 4 day residual, Pyrenophora teres on barley; conditions: 4 day residual
Description: as §9, §2, §3, §4, §5, §6, §7, §8
Fungicidal Efficacy of the Mixture of BP-4+Other Fungicides (4 Day Residual) Against Pyrenophora teres on Barley

Molecule: CC(Nc1c(-c2c(F)cc(F)cc2F)c(Cl)nc2ncnn12)C(F)(F)F (stereo not shown) [AP-4, 5-chloro-6-(2,4,6-trifluorophenyl)-7-[2-(1,1,1-trifluoro)propylamino]-[1,2,4]triazolo[1,5-a]pyrimidine]
- Observed Efficacy ([1]; dose rate 0.03 ppm): 13%
- Observed Efficacy ([1]; dose rate 0.06 ppm): 7%
- Observed Efficacy ([1]; dose rate 0.12 ppm): 32%
- Observed Efficacy ([1]; dose rate 0.25 ppm): 50%
- Observed Efficacy ([1]; dose rate 0.5 ppm): 76%
- Observed Efficacy ([1]; dose rate 1 ppm): 76%

Molecule: COc1cc(C)c(C(=O)c2c(Cl)cccc2Cl)c(OC)c1OC [BP-5, 2,6-dichloro-2′-methyl-4′,5′,6′-trimethoxybenzophenone]
- Observed Efficacy ([2]; dose rate 5 ppm): 12%
- Observed Efficacy ([2]; dose rate 25 ppm): 31%

Molecule: COc1cc(C)c(C(=O)c2c(Cl)cccc2Cl)c(OCc2ccccc2F)c1OC [BP-2, 2,6-dichloro-4′,5′-dimethoxy-6′-(2-fluorobenzyloxy)-2′-methylbenzophenone]
- Observed Efficacy ([3]; dose rate 0.67 ppm): 4%
- Observed Efficacy ([3]; dose rate 2 ppm): 13%
- Observed Efficacy ([3]; dose rate 6 ppm): 18%
- Observed Efficacy ([3]; dose rate 18 ppm): 25%
- Observed Efficacy ([3]; dose rate 54 ppm): 67%

Molecule: triforine
- Observed Efficacy ([2]; dose rate 125 ppm): 12%
- Observed Efficacy ([4]; Table VI, compound alone, dose rate 4 ppm): 1%
- Observed Efficacy ([4]; Table VI, compound alone, dose rate 16 ppm): 44%
- Observed Efficacy ([4]; Table VI, compound alone, dose rate 64 ppm): 79%
- Observed Efficacy ([4]; Table VI, compound alone, dose rate 256 ppm): 96%
- Observed Efficacy ([5]; Table VII, compound alone, dose rate 4 ppm): 0%
- Observed Efficacy ([5]; Table VII, compound alone, dose rate 16 ppm): 7%
- Observed Efficacy ([5]; Table VII, compound alone, dose rate 64 ppm): 90%
- Observed Efficacy ([5]; Table VII, compound alone, dose rate 256 ppm): 100%
- Observed Efficacy ([6]; dose rate 1 ppm): 0%
- Observed Efficacy ([6]; dose rate 4 ppm): 4%
- Observed Efficacy ([6]; dose rate 16 ppm): 31%
- Observed Efficacy ([6]; dose rate 64 ppm): 51%
- Observed Efficacy ([6]; dose rate 256 ppm): 85%

Molecule: Fc1cccc(Cl)c1-c1c(Cl)nc2ncnn2c1NC1CC1 [AP-1, 5-chloro-6-(2-chloro-6-fluorophenyl)-7-(cyclopropylamino)-[1,2,4]triazolo[1,5-a]pyrimidine]
- Observed Efficacy ([7]; Table I, dose rate 25 ppm): 0%
- Observed Efficacy ([7]; Table I, dose rate 125 ppm): 0%

Molecule: CC1CCN(c2c(-c3c(F)cccc3Cl)c(Cl)nc3ncnn23)CC1 [AP-2, 5-chloro-6-(2-chloro-6-fluorophenyl)-7-(4-methylpiperid-1-yl)-[1,2,4]triazolo[1,5-a]pyrimidine]
- Observed Efficacy ([7]; Table II, dose rate 25 ppm): 0%
- Observed Efficacy ([7]; Table II, dose rate 125 ppm): 8%

Molecule: CCCCC(C#N)(Cn1cncn1)c1ccc(Cl)cc1 (stereo not shown) [Myclobutanil]
- pest or weed control at 0.4 ppm ([4]; Golovinomyces cichoracearum, 96 h, Table XI, compound alone, dose rate 0.4 ppm, read-out: Observed Efficacy): 36%
- pest or weed control at 2 ppm ([4]; Golovinomyces cichoracearum, 96 h, Table XI, compound alone, dose rate 2 ppm, read-out: Observed Efficacy): 52%
- pest or weed control at 10 ppm ([4]; Golovinomyces cichoracearum, 96 h, Table XI, compound alone, dose rate 10 ppm, read-out: Observed Efficacy): 73%
- pest or weed control at 50 ppm ([4]; Golovinomyces cichoracearum, 96 h, Table XI, compound alone, dose rate 50 ppm, read-out: Observed Efficacy): 96%
- pest or weed control at 0.4 ppm ([5]; Puccinia recondita, 96 h, Table XII, compound alone, dose rate 0.4 ppm, read-out: Observed Efficacy): 13%
- pest or weed control at 2 ppm ([5]; Puccinia recondita, 96 h, Table XII, compound alone, dose rate 2 ppm, read-out: Observed Efficacy): 52%
- pest or weed control at 10 ppm ([5]; Puccinia recondita, 96 h, Table XII, compound alone, dose rate 10 ppm, read-out: Observed Efficacy): 72%
- pest or weed control at 50 ppm ([5]; Puccinia recondita, 96 h, Table XII, compound alone, dose rate 50 ppm, read-out: Observed Efficacy): 99%
- pest or weed control at 0.4 ppm ([8]; Pyrenophora teres, 96 h, Table XIII (Example 13), dose rate 0.4 ppm, read-out: Observed Efficacy): 0%
- pest or weed control at 2 ppm ([8]; Pyrenophora teres, 96 h, Table XIII (Example 13), dose rate 2 ppm, read-out: Observed Efficacy): 21%
- pest or weed control at 10 ppm ([8]; Pyrenophora teres, 96 h, Table XIII (Example 13), dose rate 10 ppm, read-out: Observed Efficacy): 40%
- pest or weed control at 50 ppm ([8]; Pyrenophora teres, 96 h, Table XIII (Example 13), dose rate 50 ppm, read-out: Observed Efficacy): 82%

Molecule: Flusilazole
- Observed Efficacy ([4]; Table XIV (Example 14), 4 day residual, dose rate 50 ppm): 38
- Observed Efficacy ([5]; Table XV (Example 15), 4 day residual, dose rate 50 ppm): 100
- Observed Efficacy ([8]; Table XVI (Example 16), dose rate 50 ppm): 48
